{"source": "patent US6083977A", "about": "“Trienoic retinoid compounds and methods” (Ligand Pharmaceuticals Incorporated, priority 1995, dated 2000)", "key": {"RAR and RXR receptors": {"tested_on": "RAR and RXR receptors", "assay": "Binding to the RAR and RXR receptors", "settings": "relative to ATRA (RAR) and 9-cis (RXR)"}, "AML-193": {"tested_on": "AML-193", "assay": "Incorporation of 3H-thymidine, AML-193", "settings": "96 h, read-out: TdR IC50 (50% inhibition of maximally observed thymidine incorporation)"}, "RARγ": {"molecular_target": "T1, RARγ (Homo sapiens, UniProt P13631)", "T1 construct": "expressed in transfected cells; host or cells: CV-1 (African green monkey kidney fibroblasts)", "T1 sequence (P13631 1-454)": "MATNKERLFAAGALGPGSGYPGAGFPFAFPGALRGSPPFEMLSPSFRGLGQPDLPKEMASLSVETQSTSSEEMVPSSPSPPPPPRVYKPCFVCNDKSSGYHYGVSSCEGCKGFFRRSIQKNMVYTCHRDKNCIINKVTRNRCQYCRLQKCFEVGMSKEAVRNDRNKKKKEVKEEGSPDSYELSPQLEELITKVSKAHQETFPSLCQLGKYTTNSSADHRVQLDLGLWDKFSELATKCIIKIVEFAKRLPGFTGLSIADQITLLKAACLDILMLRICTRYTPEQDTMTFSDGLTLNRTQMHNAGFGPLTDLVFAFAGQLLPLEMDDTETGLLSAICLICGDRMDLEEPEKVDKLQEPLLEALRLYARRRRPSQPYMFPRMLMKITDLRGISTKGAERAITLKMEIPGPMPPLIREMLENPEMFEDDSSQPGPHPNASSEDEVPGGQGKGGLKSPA", "assay": "Co-transfection assay (CV-1 cells), RARγ agonist activity", "assay_type": "cell-based"}, "RARs": {"tested_on": "RARs", "assay": "Co-transfection assay, RAR subfamily", "assay_type": "cell-based, human", "description": "(§1) Utilizing the \"cis-trans\" or \"co-transfection\" assay described by Evans et al., Science, 240:889-95 (May 13, 1988), the disclosure of which is herein incorporated by reference, the retinoid compounds of the present invention were tested and found to have strong, specific activity as either selective RAR agonists, selective RXR agonists, or as pan-agonist activators of both RAR and RXR receptors. This assay is described in further detail in U.S. Pat. Nos. 4,981,784 and 5,071,773, the disclosures of which are incorporated herein by reference.\n(§2) The co-transfection assay provides a method for identifying functional agonists which mimic, or antagonists which inhibit, the effect of native hormones, and quantifying their activity for responsive IR proteins. In this regard, the co-transfection assay mimics an in vivo system in the laboratory. Importantly, activity in the co-transfection assay correlates very well with known in vivo activity, such that the co-transfection assay functions as a qualitative and quantitative predictor of a tested compounds in vivo pharmacology. See, e.g., T. Berger et al. 41 J. Steroid Biochem. Molec. Biol. 773 (1992), the disclosure of which is herein incorporated by reference.\nIn the co-transfection assay, a cloned cDNA for an IR (e.g., human RARα, RARβ, RXRγ) under the control of a constitutive promoter (e.g., the SV 40 promoter) is introduced by transfection (a procedure to induce cells to take up foreign genes) into a background cell substantially devoid of endogenous IRs. This introduced gene directs the recipient cells to make the IR protein of interest. A second gene is also introduced (co-transfected) into the same cells in conjunction with the IR gene. This second gene, comprising the cDNA for a reporter protein, such as firefly luciferase (LUC), is controlled by an appropriate hormone responsive promoter containing a hormone response element (HRE). This reporter plasmid functions as a reporter for the transcription-modulating activity of the target IR. Thus, the reporter acts as a surrogate for the products (mRNA then protein) normally expressed by a gene under control of the target receptor and its native hormone.\nThe co-transfection assay can detect small molecule agonists or antagonists of target IRs. Exposing the transfected cells to an agonist ligand compound increases reporter activity in the transfected cells. This activity can be conveniently measured, e.g., by increasing luciferase production, which reflects compound-dependent, IR-mediated increases in reporter transcription. […] . Increasing concentrations of a suspected antagonist will decrease the reporter signal (e.g., luciferase production). The co-transfection assay is therefore useful to detect both agonists and antagonists of specific IRs. Furthermore, it determines not only whether a compound interacts with a particular IR, but whether this interaction mimics (agonizes) or blocks (antagonizes) the effects of the native regulatory molecules on target gene expression, as well as the specificity and strength of this interaction. […]"}, "RXRβ": {"molecular_target": "T2, RXRβ (Mus musculus, UniProt P28704)", "T2 construct": "expressed in transfected cells; host or cells: CV-1 (African green monkey kidney fibroblasts)", "T2 sequence (P28704 1-520)": "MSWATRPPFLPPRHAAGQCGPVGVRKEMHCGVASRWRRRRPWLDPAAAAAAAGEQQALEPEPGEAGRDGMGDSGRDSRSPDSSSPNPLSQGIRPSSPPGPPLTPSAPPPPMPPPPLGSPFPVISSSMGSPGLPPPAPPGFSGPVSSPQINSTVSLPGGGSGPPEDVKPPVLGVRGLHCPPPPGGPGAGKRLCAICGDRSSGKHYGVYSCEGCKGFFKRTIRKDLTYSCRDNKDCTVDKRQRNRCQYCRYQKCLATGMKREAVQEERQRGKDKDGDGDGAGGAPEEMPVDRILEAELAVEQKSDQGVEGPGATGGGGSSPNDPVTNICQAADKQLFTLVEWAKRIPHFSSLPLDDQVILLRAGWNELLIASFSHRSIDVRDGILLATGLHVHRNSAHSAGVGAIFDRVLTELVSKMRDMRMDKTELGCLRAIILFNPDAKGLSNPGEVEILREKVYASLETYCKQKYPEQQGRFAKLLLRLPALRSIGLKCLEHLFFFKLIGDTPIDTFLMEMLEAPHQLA", "assay": "Co-transfection assay (CV-1 cells), RXRβ agonist activity", "assay_type": "cell-based", "settings": "read-out: RXRβ Pot (potency, EC50)"}, "RARα": {"molecular_target": "T3, RARα (Homo sapiens, UniProt P10276)", "T3 construct": "expressed in transfected cells; host or cells: CV-1 (African green monkey kidney fibroblasts)", "T3 sequence (P10276 1-462)": "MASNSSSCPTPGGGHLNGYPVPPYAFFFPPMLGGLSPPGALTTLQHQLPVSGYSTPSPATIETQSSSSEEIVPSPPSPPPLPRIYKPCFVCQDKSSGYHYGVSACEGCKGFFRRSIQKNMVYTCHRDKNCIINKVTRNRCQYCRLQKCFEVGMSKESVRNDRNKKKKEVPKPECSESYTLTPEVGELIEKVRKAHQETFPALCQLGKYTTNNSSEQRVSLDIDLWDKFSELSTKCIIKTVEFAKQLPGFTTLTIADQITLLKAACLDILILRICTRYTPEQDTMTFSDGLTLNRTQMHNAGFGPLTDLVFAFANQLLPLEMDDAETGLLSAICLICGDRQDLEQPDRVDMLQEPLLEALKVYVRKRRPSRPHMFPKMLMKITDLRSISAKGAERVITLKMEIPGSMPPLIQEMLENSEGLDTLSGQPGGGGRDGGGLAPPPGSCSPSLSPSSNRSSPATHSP", "assay": "Co-transfection assay (CV-1 cells), RARα agonist activity", "assay_type": "cell-based", "settings": "read-out: RARα Pot (potency, EC50)"}, "RARβ": {"molecular_target": "T4, RARβ (Homo sapiens, UniProt P10826)", "T4 construct": "expressed in transfected cells; host or cells: CV-1 (African green monkey kidney fibroblasts)", "T4 sequence (P10826 1-448 isoform P10826-2)": "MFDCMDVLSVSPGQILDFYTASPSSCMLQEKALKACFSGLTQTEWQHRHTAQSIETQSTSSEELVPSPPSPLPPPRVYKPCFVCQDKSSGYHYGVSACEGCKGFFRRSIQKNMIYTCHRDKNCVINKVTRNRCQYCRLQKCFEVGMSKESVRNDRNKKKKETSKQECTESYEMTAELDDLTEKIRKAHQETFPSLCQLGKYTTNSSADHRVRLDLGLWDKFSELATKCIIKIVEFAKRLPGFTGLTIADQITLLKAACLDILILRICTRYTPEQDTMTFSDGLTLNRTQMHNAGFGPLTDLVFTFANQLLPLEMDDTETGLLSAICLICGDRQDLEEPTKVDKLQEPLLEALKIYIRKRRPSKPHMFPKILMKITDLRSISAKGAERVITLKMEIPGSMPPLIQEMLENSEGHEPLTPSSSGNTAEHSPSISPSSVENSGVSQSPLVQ", "assay": "Co-transfection assay (CV-1 cells), RARβ agonist activity", "assay_type": "cell-based", "settings": "read-out: RARβ Pot (potency, EC50)"}, "RXRγ": {"molecular_target": "T5, RXRγ (Mus musculus, UniProt P28705)", "T5 construct": "expressed in transfected cells; host or cells: CV-1 (African green monkey kidney fibroblasts)", "T5 sequence (P28705 1-463)": "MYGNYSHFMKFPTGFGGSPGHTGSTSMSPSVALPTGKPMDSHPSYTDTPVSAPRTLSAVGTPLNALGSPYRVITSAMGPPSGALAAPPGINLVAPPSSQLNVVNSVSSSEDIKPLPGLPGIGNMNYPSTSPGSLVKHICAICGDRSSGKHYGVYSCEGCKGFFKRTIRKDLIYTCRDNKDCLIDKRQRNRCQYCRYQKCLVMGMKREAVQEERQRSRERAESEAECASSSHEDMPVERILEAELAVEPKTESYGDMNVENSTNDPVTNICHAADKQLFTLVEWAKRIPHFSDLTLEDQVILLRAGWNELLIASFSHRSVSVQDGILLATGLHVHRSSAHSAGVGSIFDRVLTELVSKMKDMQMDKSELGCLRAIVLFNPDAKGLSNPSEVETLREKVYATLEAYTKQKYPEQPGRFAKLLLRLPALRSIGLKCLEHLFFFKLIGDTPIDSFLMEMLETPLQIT", "assay": "Co-transfection assay (CV-1 cells), RXRγ agonist activity", "assay_type": "cell-based", "settings": "read-out: RXRγ Pot (potency, EC50)"}, "RXRα": {"molecular_target": "T6, RXRα (Homo sapiens, UniProt P19793)", "T6 construct": "expressed in transfected cells; host or cells: CV-1 (African green monkey kidney fibroblasts)", "T6 sequence (P19793 1-462)": "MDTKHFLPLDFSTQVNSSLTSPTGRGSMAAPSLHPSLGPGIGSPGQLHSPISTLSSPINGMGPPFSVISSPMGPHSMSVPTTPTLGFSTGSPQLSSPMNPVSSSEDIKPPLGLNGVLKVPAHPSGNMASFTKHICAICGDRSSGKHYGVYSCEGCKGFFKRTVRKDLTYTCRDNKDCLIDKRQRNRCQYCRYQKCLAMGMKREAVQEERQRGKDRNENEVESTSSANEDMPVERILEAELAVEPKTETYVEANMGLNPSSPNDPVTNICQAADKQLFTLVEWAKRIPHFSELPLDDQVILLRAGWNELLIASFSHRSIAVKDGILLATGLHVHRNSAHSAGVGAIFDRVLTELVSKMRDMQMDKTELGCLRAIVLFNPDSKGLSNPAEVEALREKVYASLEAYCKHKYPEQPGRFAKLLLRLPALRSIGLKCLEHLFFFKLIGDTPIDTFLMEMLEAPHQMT", "assay": "Co-transfection assay (CV-1 cells), RXRα agonist activity", "assay_type": "cell-based", "settings": "read-out: RXRα Pot (potency, EC50)"}, "RXR": {"tested_on": "RXR", "assay": "Co-transfection assay, RXR subfamily", "assay_type": "cell-based", "description": "as §1\nas §2, with “Biol. 773 (1992), the disclosure of which is herein incorporated by reference.” left out\nThe co-transfection assay can detect small molecule agonists or antagonists of target IRs. […] This activity can be conveniently measured, e.g., by increasing luciferase production, which reflects compound-dependent, IR-mediated increases in reporter transcription. […]"}}}
{"smiles": "CC(/C=C/C=C(\\C)c1cc(C(C)(C)C)cc(C(C)(C)C)c1)=C\\C(=O)O", "note": "[Compound 9, (2E, 4E, 6E)-7-(3,5-Di-t-butylphenyl)-3-methylocta-2,4,6-trienoic acid]", "values": [{"measurement": "binding compared to ATRA and 9-cis (in words)", "setting": "RAR and RXR receptors", "result": "equal or superior binding"}, {"measurement": "IC50", "setting": "AML-193", "result": 0.1, "unit": "nM"}, {"measurement": "activity on RARγ (in words)", "setting": "RARγ", "result": "sub-nanomolar activity"}, {"measurement": "RAR activity (in words)", "setting": "RARs", "result": "extremely potent RAR active compounds"}]}
{"smiles": "CCCC(O)c1cc(C(C)(C)C)cc(C(C)(C)C)c1", "note": "(centres unmarked) [Compound 19, 1-(3,5-Di-t-butylphenyl)butan-1-ol]", "values": [{"measurement": "EC50", "setting": "RXRβ", "result": 48, "unit": "nM"}, {"measurement": "EC50", "setting": "RARα", "result": 59, "unit": "nM"}, {"measurement": "EC50", "setting": "RARβ", "result": 23, "unit": "nM"}, {"measurement": "EC50", "setting": "RXRγ", "result": 56, "unit": "nM"}, {"measurement": "EC50", "setting": "RXRα", "result": 127, "unit": "nM"}, {"measurement": "EC50", "setting": "RARγ; co-transfection assay, CV-1 cells, read-out: RARγ Pot (potency, EC50)", "result": 16, "unit": "nM"}]}
{"smiles": "CCC/C(=C/C=C/C(C)=C/C(=O)O)c1cc(C(C)(C)C)cc(C(C)(C)C)c1", "note": "[Compound 28, (2E. 4E 6Z)-7-(3,5-Di-t-butylphenyl)-3-methyldeca-2,4,6-trienoic acid]", "values": [{"measurement": "RXR activity (in words)", "setting": "RXR", "result": "very potent and selective RXR active compound"}]}
